This note sets out measurements from ChEMBL document CHEMBL5653631, “A Potent and Selective ULK1 Inhibitor Suppresses Autophagy and Sensitizes Cancer Cells to Nutrient Stress” (iScience, 2018).

Activity calls are given as the source filed them. The rule behind the calls is not given here.

One assay has as its system U2OS. Put plainly: Inhibition of autophagy in human U2OS cells assessed as BafA1-induced LC3B-II accumulation upto 5 uM preincubated with compound for 3 hrs followed by BafA1 induction and measured after 1 hr by immunoblotting analysis. Type of assay: functional, cell-based. The conditions noted are these: time 4.0 hrs. (In general: In western blotting, separated proteins are transferred to a membrane and probed.)

For assay [1], the target named is T1, Bone morphogenetic protein receptor type-2 (Homo sapiens) (UniProt Q13873).
T1 sequence (whole entry): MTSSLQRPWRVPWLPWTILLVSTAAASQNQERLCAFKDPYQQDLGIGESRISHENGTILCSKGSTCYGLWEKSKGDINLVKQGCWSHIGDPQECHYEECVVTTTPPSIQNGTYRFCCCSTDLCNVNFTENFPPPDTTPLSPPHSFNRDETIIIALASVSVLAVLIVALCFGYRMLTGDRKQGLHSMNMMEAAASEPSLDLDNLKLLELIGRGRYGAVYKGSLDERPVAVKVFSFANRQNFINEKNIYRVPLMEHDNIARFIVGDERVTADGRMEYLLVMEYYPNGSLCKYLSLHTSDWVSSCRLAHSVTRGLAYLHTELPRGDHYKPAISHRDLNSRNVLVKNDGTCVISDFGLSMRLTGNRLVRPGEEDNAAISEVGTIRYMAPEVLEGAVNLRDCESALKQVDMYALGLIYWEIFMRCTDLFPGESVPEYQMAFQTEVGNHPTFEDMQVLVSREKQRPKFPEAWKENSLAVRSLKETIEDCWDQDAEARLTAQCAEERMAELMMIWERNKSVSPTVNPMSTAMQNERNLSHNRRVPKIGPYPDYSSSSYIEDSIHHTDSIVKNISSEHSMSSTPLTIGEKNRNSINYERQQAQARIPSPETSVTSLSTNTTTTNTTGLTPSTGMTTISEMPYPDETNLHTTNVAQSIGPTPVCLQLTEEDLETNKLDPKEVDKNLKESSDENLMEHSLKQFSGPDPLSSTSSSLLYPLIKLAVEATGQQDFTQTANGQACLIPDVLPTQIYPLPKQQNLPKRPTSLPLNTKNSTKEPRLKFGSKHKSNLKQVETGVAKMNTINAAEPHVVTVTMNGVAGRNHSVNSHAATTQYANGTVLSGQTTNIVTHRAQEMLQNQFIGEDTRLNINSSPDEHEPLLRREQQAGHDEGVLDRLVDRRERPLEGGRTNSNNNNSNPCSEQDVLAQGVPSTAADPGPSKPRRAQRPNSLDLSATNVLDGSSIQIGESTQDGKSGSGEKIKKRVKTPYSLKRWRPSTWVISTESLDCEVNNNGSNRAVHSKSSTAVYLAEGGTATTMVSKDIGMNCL
In words: Inhibition of human recombinant BMPR2 at 40 nM related to control ULK1.

Assay [2] deals with Ribosomal protein S6 kinase alpha-5 (Homo sapiens) (UniProt O75582). In words: Inhibition of human recombinant MSK1 at 40 nM related to control ULK1.
Sequence of Ribosomal protein S6 kinase alpha-5 (Homo sapiens) (O75582 whole entry, looked up): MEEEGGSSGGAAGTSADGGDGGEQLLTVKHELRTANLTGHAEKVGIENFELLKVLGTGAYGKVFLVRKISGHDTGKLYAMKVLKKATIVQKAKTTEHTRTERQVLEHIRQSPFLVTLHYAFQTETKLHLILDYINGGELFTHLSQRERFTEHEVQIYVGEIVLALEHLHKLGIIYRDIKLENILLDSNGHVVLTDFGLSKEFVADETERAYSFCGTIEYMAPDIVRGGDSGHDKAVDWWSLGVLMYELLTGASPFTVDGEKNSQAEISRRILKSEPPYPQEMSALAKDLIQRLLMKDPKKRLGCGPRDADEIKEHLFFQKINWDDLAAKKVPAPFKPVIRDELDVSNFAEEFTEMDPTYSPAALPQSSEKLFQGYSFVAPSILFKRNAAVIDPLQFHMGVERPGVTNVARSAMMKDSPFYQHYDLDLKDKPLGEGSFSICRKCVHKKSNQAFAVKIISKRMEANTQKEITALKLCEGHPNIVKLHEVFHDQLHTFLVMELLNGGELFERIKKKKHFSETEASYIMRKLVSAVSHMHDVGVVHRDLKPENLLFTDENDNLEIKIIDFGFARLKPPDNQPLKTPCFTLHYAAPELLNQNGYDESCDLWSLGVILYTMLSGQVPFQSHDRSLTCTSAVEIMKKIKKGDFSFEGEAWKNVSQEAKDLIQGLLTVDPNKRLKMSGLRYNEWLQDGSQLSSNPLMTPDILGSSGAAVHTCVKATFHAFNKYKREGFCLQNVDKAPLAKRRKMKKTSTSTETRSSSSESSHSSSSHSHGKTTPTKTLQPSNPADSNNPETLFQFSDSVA
In assay [3] the target is Cyclin-dependent kinase 18 (Homo sapiens) (UniProt Q07002). Put plainly: Inhibition of human recombinant PCTAIRE3 at 40 nM related to control ULK1.
Sequence of Cyclin-dependent kinase 18 (Homo sapiens) (Q07002 whole entry): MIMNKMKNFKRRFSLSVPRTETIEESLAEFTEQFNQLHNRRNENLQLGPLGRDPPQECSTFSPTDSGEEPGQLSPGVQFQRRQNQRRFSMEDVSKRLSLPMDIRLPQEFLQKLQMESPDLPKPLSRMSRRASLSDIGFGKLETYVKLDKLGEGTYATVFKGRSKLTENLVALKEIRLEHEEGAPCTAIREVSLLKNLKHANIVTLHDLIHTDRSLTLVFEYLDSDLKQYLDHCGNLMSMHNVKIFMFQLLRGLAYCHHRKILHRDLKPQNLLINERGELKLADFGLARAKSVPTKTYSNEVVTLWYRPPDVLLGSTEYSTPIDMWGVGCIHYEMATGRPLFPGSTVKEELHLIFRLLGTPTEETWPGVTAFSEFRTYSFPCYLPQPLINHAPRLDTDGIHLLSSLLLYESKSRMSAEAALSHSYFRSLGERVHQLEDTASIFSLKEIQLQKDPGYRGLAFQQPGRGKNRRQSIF
Assay [4] concerns the target Serine/threonine-protein kinase pim-2 (Homo sapiens) (UniProt Q9P1W9). Put plainly: Inhibition of human recombinant PIM2 at 40 nM related to control ULK1.
Assay [5] deals with Mitogen-activated protein kinase kinase kinase 10 (Homo sapiens) (UniProt Q02779). Put plainly: Inhibition of human recombinant MLK2 at 500 nM in presence of ATP by radiometric assay relative to control.
Sequence of Mitogen-activated protein kinase kinase kinase 10 (Homo sapiens) (Q02779 whole entry, looked up): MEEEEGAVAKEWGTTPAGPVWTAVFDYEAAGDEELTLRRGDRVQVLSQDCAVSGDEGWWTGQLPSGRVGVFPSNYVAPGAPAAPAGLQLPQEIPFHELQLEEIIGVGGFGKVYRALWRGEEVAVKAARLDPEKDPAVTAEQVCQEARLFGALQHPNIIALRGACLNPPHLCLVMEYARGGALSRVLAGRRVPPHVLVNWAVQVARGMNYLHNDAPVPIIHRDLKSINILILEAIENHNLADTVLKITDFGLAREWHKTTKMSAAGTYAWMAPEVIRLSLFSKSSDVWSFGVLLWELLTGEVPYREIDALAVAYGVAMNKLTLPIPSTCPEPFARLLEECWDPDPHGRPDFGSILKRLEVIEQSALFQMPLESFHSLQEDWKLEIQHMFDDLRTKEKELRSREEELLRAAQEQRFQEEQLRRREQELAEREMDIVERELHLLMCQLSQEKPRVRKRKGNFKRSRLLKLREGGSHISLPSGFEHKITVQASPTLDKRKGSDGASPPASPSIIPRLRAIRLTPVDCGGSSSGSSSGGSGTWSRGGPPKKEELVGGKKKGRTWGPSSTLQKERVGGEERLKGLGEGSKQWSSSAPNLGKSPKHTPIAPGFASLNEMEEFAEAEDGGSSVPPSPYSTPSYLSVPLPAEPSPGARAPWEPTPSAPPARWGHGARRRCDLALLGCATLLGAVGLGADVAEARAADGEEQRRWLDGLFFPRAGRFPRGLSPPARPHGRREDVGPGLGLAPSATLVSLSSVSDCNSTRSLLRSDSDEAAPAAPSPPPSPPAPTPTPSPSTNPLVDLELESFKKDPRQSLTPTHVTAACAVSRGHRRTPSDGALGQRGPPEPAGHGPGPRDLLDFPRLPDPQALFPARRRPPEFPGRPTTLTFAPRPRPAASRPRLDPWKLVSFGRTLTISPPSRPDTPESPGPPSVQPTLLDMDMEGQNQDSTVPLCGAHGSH
Assay [6] concerns the target STE20-like serine/threonine-protein kinase (Homo sapiens) (UniProt Q9H2G2). In words: Inhibition of human recombinant SLK at 500 nM related to control ULK1.
Assay [7] concerns the target T2, Serine/threonine-protein kinase TBK1 (Homo sapiens) (UniProt Q9UHD2).
T2 sequence (whole entry): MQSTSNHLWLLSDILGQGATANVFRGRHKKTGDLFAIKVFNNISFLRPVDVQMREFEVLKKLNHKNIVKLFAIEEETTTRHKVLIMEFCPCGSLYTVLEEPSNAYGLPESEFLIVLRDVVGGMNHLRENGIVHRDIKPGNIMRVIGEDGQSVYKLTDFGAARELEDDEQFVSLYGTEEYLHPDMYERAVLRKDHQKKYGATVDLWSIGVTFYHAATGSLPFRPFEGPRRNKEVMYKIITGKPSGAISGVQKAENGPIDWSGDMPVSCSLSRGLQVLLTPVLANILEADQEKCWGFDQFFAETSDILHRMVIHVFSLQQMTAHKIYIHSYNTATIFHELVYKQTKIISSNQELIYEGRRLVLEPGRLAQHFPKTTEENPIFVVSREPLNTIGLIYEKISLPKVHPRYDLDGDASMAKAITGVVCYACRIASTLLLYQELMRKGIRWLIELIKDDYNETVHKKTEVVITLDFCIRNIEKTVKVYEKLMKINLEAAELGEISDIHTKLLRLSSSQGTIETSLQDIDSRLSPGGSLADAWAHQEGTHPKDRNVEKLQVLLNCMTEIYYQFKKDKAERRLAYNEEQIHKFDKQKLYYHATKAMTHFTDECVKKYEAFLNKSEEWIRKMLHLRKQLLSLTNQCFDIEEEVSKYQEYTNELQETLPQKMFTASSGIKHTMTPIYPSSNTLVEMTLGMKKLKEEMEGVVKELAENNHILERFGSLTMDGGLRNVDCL
In words: Inhibition of human recombinant TBK1 at 500 nM related to control ULK1.

Assay [8] has as its target Tyrosine-protein kinase Tec (Homo sapiens) (UniProt P42680). In words: Inhibition of human recombinant TEC at 500 nM related to control ULK1.
Assay [9] addresses Leucine-rich repeat serine/threonine-protein kinase 2 (Homo sapiens) (UniProt Q5S007). Put plainly: Inhibition of human recombinant LRRK2 at 15 nM in presence of ATP by radiometric assay relative to control.
Assay [10] addresses Protein kinase C beta type (Homo sapiens) (UniProt P05771). In words: Inhibition of human recombinant PKCb at 15 nM in presence of ATP by radiometric assay relative to control.

Sequence of Protein kinase C beta type (Homo sapiens) (P05771 2-671 limits assumed): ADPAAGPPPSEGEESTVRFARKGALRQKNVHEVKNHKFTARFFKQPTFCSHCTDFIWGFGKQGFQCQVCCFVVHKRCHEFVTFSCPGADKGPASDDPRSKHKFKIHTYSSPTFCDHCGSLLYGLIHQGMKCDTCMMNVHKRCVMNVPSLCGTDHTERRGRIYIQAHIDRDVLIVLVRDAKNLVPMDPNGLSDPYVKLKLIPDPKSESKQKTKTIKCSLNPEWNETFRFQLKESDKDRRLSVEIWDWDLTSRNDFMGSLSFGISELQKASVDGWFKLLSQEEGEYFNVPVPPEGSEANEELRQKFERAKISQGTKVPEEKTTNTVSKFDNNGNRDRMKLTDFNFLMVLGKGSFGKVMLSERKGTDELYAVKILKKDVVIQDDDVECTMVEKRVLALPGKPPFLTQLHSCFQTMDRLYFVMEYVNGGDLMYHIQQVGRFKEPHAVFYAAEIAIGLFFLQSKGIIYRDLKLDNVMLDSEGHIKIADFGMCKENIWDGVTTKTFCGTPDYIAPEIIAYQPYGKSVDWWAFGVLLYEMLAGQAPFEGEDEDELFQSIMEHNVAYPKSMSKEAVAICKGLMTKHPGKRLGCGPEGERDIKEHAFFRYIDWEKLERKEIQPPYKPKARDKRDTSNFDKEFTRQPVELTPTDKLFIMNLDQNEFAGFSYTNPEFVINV
Sequence of Serine/threonine-protein kinase pim-2 (Homo sapiens) (Q9P1W9 whole entry, looked up): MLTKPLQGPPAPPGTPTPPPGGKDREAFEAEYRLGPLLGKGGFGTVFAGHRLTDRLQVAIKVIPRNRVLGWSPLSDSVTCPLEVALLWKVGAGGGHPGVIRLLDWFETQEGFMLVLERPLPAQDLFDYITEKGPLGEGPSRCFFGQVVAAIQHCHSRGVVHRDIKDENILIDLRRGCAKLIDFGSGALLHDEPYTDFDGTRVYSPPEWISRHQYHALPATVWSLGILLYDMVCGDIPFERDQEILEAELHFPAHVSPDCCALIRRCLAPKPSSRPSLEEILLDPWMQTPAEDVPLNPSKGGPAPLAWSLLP
Sequence of STE20-like serine/threonine-protein kinase (Homo sapiens) (Q9H2G2 whole entry, looked up): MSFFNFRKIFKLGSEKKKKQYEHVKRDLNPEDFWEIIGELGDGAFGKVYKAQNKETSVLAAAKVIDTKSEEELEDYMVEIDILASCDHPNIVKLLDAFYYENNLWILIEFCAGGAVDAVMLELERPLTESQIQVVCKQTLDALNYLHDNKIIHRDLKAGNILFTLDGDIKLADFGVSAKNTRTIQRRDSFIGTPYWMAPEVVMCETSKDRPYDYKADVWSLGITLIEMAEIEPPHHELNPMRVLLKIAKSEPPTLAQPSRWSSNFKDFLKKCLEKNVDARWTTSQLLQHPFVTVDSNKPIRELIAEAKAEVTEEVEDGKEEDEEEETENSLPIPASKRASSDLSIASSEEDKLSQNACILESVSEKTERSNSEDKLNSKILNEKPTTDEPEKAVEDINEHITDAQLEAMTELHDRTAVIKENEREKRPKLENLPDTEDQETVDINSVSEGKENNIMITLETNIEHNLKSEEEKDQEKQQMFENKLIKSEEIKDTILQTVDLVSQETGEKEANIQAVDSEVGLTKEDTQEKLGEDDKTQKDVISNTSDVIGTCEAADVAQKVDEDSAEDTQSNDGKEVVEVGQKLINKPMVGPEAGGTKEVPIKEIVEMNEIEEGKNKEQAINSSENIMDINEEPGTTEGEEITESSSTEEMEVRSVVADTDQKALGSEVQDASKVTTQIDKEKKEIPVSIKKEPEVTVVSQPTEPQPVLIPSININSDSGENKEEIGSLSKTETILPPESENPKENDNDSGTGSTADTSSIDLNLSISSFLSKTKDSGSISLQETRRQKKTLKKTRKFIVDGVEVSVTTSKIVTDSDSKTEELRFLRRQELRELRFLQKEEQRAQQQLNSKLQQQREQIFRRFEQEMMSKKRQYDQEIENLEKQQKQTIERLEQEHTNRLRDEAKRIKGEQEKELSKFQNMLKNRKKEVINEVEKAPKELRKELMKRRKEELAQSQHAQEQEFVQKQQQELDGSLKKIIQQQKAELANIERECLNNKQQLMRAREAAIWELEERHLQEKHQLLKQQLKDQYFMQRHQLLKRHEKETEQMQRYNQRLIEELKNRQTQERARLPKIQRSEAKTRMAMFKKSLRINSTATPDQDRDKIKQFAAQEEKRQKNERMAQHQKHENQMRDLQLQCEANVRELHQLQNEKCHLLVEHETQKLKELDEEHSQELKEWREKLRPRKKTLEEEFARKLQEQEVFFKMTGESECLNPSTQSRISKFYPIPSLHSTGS
Sequence of Tyrosine-protein kinase Tec (Homo sapiens) (P42680 whole entry, looked up): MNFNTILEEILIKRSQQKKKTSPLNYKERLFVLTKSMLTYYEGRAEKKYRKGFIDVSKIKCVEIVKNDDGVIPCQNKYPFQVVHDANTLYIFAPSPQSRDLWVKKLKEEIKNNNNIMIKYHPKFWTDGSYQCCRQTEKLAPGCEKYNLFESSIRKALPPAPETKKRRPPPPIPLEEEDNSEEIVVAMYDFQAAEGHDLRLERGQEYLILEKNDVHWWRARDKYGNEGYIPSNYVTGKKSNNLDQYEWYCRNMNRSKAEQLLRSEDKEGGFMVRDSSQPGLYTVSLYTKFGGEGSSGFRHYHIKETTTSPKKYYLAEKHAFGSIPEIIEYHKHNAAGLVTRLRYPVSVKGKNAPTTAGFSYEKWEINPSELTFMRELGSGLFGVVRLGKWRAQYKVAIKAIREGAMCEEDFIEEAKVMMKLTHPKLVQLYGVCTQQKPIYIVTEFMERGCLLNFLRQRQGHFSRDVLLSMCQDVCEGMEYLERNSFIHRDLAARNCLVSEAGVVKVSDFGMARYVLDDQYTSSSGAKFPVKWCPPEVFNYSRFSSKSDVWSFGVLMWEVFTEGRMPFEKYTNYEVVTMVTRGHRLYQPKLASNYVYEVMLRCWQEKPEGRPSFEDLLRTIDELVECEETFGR

One may read the inhibition as the drop in the measured response relative to a control, in per cent. As for `O=C(N[C@@H](C1CC1)C(F)(F)F)c1cc(-c2cnn3cc(-c4ccc(F)cc4)cnc23)cs1`, the inhibition entry in the assay with U2OS is “Active”. Also, the fold change (FC) in [1] stood at 0.08; in [2], 0; in assay [3], 0.42; in [4] it was 0.04.

Regarding `CNC(=O)c1ccccc1Oc1nc(Nc2cc(OC)c(OC)c(OC)c2)ncc1Br`, in assay [5], the inhibition amounted to 70%. Moreover, the figures for the fold change (FC) in assay [6], in assay [7] and in assay [8] were 0.2, 0 and 0.03, respectively.

With `CC(C)[C@H](NC(=O)c1cc(-c2cnn3cc(-c4ccc(OCCN5CCCCC5)cc4)cnc23)cs1)C(F)(F)F`, the inhibition in assay [9] was 3%; in assay [10] it was 0%.
